SMILES strings stand for the structures.

What all share (assay): pIC50, kinobeads binding competition
For one assay, the target named is T1, DDR2 (UniProt Q16832).
T1 sequence (whole entry): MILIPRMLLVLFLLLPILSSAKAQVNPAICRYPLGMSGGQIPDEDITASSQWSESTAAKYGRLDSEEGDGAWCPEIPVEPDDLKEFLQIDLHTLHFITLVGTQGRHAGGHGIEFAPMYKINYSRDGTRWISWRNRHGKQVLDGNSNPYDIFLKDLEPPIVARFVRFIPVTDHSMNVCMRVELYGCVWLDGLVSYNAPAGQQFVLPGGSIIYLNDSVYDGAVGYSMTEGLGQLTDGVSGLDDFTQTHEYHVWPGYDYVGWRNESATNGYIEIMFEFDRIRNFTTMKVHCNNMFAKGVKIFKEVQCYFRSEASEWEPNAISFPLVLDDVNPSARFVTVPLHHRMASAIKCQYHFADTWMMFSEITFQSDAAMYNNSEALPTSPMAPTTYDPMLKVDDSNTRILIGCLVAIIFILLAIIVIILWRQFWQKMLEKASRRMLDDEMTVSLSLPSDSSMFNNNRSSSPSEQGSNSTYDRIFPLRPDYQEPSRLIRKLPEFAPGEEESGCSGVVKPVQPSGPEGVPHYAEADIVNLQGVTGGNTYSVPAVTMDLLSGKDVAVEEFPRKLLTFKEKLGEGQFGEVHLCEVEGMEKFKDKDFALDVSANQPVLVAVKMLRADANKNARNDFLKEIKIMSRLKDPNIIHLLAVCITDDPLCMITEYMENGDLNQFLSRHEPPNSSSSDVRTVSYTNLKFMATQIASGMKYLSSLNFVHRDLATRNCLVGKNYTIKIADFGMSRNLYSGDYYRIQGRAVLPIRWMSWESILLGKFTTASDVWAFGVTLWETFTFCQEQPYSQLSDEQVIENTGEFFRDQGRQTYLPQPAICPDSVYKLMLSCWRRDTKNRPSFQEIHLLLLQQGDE
Conditions: cell material: Lysate mix. The method, boiled down: (§1)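 Either living Jurkat cells (60 min at 37 °C, then lysis) or lysates (60 min at 4 °C) were treated with nine compound concentrations from a top of 30 μM, in 1:4 steps for cells and 1:5 steps for lysates. The lysates were from Jurkat cells or a 1:1:1:1 mix of HEK293, K-562, HepG2 and placenta. Kinobeads-bound proteins were digested and quantified by TMT10 LC-MS/MS. pIC50 was calculated by logistic dose-response fitting (R drc package) of fold changes relative to vehicle, in biological duplicates.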

Another assay has as its target T2, EPHA3 (UniProt P29320).
T2 sequence (whole entry): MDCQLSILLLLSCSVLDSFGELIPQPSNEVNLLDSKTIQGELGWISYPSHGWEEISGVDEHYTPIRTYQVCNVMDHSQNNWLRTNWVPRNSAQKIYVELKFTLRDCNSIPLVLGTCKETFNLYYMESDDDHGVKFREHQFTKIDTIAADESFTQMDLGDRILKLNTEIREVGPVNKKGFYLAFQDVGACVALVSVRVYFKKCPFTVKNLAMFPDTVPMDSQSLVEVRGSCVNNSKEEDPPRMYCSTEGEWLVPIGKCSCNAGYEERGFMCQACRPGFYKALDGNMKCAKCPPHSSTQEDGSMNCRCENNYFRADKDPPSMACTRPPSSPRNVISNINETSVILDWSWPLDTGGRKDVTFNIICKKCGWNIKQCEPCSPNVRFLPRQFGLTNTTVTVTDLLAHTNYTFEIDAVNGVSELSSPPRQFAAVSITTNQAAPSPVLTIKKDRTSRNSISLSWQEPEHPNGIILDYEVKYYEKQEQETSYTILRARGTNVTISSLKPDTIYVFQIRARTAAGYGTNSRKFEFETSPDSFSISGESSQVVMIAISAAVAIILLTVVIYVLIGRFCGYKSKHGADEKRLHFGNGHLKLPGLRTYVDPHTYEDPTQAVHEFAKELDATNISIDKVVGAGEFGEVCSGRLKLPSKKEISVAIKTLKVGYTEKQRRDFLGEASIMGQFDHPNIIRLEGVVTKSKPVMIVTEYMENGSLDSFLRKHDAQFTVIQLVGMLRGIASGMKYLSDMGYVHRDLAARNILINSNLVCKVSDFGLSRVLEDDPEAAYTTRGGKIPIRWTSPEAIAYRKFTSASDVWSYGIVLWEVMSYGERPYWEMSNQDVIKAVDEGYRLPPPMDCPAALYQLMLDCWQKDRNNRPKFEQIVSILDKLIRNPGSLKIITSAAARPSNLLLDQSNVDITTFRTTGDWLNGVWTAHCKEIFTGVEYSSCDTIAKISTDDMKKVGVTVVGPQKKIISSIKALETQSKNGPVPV
In short, it runs like this:
as §1

The target in the next assay is LRRK2 (UniProt Q5S007). Conditions: cell material: Lysate mix. In short, it runs like this: as §1
In another assay the target is MELK (UniProt Q14680). The method, boiled down:
as §1

A further assay addresses PKN3 (UniProt Q6P5Z2). Particulars: cell material: Lysate mix. The method, boiled down: as §1
A further assay deals with TESK2 (UniProt Q96S53). In short, it runs like this:
as §1

The target of the next assay is UniProt P09619. Conditions: cell material: Lysate mix. In short, it runs like this: as §1
A further assay concerns the target UniProt P21127. The method, boiled down: as §1

Chain of MELK (Q14680 whole entry, looked up): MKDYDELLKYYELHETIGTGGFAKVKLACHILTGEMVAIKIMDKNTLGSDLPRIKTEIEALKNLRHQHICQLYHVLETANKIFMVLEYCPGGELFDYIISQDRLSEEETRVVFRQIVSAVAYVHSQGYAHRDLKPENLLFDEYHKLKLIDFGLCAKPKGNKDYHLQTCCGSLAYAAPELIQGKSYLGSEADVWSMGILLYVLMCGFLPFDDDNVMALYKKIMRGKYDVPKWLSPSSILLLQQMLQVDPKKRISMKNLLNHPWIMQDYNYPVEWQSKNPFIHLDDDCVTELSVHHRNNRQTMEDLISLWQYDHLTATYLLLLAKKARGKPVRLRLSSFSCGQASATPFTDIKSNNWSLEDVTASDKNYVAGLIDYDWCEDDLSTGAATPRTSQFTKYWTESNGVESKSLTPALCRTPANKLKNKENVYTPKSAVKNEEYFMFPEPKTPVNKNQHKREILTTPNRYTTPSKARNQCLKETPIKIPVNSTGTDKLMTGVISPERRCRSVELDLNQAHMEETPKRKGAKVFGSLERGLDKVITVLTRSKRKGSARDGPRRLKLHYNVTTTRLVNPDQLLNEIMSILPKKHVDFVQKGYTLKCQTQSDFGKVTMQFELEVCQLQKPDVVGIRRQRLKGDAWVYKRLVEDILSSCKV
Chain of UniProt P09619 (P09619 whole entry): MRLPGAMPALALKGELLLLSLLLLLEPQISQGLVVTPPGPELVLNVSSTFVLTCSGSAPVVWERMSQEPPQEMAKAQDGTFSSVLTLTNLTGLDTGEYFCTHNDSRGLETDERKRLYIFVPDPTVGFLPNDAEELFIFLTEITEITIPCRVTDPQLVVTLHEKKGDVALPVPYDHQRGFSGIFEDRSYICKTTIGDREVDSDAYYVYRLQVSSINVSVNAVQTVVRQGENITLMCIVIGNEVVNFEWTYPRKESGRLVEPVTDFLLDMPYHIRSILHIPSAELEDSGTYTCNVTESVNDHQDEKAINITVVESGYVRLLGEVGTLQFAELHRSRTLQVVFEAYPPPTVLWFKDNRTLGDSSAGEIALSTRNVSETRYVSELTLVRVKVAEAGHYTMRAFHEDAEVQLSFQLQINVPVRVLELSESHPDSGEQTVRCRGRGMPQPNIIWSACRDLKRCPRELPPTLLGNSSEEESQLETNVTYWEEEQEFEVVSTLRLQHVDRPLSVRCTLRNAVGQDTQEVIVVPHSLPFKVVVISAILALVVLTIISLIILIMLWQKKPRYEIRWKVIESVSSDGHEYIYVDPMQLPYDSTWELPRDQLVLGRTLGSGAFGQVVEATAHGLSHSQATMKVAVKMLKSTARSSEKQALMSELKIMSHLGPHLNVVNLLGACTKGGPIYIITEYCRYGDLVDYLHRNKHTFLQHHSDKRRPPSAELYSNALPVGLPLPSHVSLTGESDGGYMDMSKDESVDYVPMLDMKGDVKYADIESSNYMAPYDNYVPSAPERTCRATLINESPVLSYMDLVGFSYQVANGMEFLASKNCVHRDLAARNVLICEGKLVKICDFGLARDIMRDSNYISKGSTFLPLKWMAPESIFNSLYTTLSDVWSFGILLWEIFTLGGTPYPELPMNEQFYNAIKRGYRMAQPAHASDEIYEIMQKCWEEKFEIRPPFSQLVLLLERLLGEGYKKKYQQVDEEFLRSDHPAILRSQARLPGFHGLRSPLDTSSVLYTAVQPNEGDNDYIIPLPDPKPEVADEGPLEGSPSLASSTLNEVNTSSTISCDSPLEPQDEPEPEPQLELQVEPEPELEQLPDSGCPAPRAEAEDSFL
Chain of UniProt P21127 (P21127 whole entry): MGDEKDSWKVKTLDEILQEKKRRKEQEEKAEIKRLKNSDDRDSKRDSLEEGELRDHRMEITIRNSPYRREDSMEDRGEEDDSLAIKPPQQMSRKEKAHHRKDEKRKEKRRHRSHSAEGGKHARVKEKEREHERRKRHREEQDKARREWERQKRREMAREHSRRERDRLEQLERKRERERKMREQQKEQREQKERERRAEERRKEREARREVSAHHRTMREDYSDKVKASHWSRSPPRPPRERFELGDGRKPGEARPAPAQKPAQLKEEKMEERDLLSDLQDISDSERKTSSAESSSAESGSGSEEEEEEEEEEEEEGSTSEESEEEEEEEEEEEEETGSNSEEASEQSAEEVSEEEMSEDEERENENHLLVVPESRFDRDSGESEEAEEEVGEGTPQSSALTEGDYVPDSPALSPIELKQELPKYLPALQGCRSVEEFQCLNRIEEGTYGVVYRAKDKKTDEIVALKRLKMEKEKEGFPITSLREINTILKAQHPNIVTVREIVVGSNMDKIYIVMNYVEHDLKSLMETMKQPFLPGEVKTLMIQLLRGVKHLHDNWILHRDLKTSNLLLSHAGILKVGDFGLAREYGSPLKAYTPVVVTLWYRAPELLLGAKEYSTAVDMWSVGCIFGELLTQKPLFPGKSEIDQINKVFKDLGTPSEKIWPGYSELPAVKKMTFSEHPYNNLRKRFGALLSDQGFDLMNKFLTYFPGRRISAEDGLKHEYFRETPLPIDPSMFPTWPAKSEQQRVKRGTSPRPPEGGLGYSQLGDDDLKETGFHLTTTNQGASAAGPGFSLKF
Chain of LRRK2 (Q5S007 whole entry): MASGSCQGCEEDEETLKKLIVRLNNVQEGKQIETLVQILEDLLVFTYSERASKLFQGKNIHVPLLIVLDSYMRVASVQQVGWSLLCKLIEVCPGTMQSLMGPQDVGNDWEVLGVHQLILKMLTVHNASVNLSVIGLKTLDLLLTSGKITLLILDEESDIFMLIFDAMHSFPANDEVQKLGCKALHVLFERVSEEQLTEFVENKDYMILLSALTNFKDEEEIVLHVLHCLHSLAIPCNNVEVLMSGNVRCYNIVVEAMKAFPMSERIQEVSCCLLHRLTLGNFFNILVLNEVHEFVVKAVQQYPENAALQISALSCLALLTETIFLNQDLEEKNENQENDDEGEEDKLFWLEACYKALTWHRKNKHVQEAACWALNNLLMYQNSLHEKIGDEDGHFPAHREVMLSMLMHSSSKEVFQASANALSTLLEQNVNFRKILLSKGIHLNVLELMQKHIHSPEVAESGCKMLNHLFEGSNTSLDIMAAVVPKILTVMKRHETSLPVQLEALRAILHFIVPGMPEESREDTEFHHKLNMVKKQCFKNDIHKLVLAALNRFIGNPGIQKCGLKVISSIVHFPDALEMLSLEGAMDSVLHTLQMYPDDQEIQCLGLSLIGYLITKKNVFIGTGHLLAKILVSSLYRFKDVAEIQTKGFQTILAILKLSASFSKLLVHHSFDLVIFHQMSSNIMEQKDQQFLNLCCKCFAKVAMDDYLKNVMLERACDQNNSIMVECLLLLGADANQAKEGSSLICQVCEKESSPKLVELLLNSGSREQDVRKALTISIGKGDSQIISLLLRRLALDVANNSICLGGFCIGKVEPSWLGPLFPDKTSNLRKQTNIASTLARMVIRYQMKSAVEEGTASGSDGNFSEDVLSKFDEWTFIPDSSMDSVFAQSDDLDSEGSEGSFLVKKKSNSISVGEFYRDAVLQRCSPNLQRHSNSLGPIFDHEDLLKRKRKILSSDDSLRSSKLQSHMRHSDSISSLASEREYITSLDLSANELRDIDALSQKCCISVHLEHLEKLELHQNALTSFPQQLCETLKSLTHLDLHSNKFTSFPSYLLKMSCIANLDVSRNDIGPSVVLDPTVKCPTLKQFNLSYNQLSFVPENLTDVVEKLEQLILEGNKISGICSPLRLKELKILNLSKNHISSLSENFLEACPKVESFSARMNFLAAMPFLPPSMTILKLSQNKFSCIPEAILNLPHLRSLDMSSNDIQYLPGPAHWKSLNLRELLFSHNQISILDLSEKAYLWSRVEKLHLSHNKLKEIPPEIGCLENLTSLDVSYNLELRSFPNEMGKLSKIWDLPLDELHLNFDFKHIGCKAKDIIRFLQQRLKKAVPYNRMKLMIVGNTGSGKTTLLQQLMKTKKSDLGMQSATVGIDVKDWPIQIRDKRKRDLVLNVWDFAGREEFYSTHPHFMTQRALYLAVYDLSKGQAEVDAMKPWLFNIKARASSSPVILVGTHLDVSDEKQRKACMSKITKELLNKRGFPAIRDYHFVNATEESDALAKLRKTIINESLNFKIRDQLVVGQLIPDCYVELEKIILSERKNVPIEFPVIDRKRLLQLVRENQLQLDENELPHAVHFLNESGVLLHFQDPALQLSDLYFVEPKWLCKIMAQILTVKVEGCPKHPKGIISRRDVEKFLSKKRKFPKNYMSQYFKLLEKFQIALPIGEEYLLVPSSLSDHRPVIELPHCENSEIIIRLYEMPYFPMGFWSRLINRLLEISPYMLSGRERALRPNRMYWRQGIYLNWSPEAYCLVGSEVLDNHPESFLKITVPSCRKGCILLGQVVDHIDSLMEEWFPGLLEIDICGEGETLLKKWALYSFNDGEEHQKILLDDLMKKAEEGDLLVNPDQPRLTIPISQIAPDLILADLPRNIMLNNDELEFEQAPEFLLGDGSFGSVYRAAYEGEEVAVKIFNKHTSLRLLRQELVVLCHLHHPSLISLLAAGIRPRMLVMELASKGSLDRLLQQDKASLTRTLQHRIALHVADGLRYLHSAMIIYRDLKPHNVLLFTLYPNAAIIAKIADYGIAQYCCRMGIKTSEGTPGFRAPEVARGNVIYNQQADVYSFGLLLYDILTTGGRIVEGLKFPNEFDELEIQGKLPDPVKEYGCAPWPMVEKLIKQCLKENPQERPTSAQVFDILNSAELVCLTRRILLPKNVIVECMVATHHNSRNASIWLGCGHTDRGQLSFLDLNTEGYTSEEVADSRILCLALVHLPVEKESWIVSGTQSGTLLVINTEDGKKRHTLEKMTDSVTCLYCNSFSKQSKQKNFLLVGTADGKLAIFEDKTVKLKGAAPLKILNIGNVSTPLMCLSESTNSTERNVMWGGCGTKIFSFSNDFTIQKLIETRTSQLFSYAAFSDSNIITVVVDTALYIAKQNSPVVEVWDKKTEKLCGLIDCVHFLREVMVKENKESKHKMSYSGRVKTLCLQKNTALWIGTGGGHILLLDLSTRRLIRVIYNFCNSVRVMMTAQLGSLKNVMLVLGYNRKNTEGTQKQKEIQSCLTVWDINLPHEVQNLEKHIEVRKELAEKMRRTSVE

Regarding `C#CCNC(=O)c1cc(Nc2cc(C)[nH]n2)nc(N2CCN(Cc3ccc(S(=O)(=O)F)cc3)CC2)n1`, the negative-log IC50 (pIC50) is less than 4.52 at DDR2; less than 4.52 on EPHA3 (cell material: Lysate mix); 5.27 on LRRK2; less than 4.52 on MELK (cell material: Lysate mix); less than 4.52 at PKN3; less than 4.52 on TESK2 (cell material: Lysate mix). In addition, the pIC50 at UniProt P09619 and at UniProt P21127 (cell material: Lysate mix) was less than 4.52 in each case.

With `O=C(NCCNC(=O)c1cc(Nc2cc(C3CC3)[nH]n2)nc(N2CCN(Cc3ccc(S(=O)(=O)F)cc3)CC2)n1)OC1CC/C=C/CCC1` (configuration not stated), the negative logarithm of the IC50 (pIC50) at DDR2, at EPHA3 (cell material: Jurkat cells), at EPHA3 (cell material: Jurkat lysate), at EPHA3 (cell material: Lysate mix), on LRRK2 and at MELK (cell material: Jurkat cells) was less than 4.52 in each case. Also, the negative logarithm of the IC50 (pIC50) at MELK (cell material: Jurkat lysate), at MELK (cell material: Lysate mix), on PKN3, on TESK2 (cell material: Jurkat lysate), on TESK2 (cell material: Lysate mix) and at UniProt P09619 was less than 4.52 in each case. Moreover, the pIC50 on UniProt P21127 (cell material: Jurkat cells), on UniProt P21127 (cell material: Jurkat lysate) and at UniProt P21127 (cell material: Lysate mix) was less than 4.52 in each case.

For the compound `CCNC(=O)c1cc(Nc2cc(C3CC3)[nH]n2)nc(N2CCN(Cc3ccc(S(=O)(=O)F)cc3)CC2)n1`, the pIC50 was 4.57 at DDR2; less than 4.52 at EPHA3 (cell material: Lysate mix); 5.46 on LRRK2; less than 4.52 on MELK (cell material: Lysate mix); less than 4.52 on PKN3; less than 4.52 on TESK2 (cell material: Lysate mix). Further, the pIC50 at UniProt P09619 and on UniProt P21127 (cell material: Lysate mix) was less than 4.52 throughout.

Take `Cc1cc(Nc2cc(C(=O)NCCNC(=O)OC3CC/C=C/CCC3)nc(N3CCN(Cc4ccc(S(=O)(=O)F)cc4)CC3)n2)n[nH]1` (configuration not stated): the negative-log IC50 (pIC50) at DDR2, on EPHA3 (cell material: Lysate mix), on LRRK2, on MELK (cell material: Lysate mix), at PKN3 and at TESK2 (cell material: Lysate mix) was less than 4.52 in each case. Further, the pIC50 at UniProt P09619 and on UniProt P21127 (cell material: Lysate mix) was less than 4.52 throughout.

Consider `CCNC(=O)c1cc(Nc2cc(C)[nH]n2)nc(N2CCN(Cc3ccc(S(=O)(=O)F)cc3)CC2)n1`, for which the pIC50 was less than 4.52 at DDR2; less than 4.52 at EPHA3 (cell material: Lysate mix); 5.28 on LRRK2; less than 4.52 on MELK (cell material: Lysate mix); less than 4.52 at PKN3; less than 4.52 on TESK2 (cell material: Lysate mix). For the same compound, the negative-log IC50 (pIC50) on UniProt P09619 and at UniProt P21127 (cell material: Lysate mix) was less than 4.52 in each case.

As to `C#CCNC(=O)c1cc(Nc2cc(C3CC3)[nH]n2)nc(N2CCN(Cc3ccc(S(=O)(=O)F)cc3)CC2)n1`, the negative-log IC50 (pIC50) on DDR2 was less than 4.52; at EPHA3 (cell material: Jurkat lysate), less than 4.52; at EPHA3 (cell material: Lysate mix), less than 4.52; at LRRK2, 5.64; on MELK (cell material: Jurkat cells), less than 4.52; at MELK (cell material: Jurkat lysate), less than 4.52. In addition, the pIC50 on MELK (cell material: Lysate mix), on PKN3, on TESK2 (cell material: Jurkat cells), on TESK2 (cell material: Jurkat lysate), at TESK2 (cell material: Lysate mix) and on UniProt P09619 was less than 4.52 in each case. For the same compound, the negative logarithm of the IC50 (pIC50) on UniProt P21127 (cell material: Jurkat cells), at UniProt P21127 (cell material: Jurkat lysate) and at UniProt P21127 (cell material: Lysate mix) was less than 4.52 each time.

The values above are taken from the supplement of paper PMC12076712.
